In patent US20220119354A1, “DIAMINO-SUBSTITUTED PYRIDINES AND PYRIMIDINES AS HERBICIDES” (FMC Corporation, priority 2019, published 2022):

What was measured:
Type in all cases: in vivo
[1] = system: barnyardgrass (Echinochloa crus-galli); assay: Test A preemergence, barnyardgrass; conditions: 0 to 100 scale
How it was run: (§1)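 Plants grown in a loam soil and sand blend were treated either preemergence by directed soil spray or postemergence when 2 to 10 cm tall (one- to two-leaf stage). Formulation: non-phytotoxic solvent mixture with surfactant. Greenhouse hold ~10 d, then visual injury assessment on a 0–100 scale.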

[2] = system: kochia (Kochia scoparia); assay: Test A preemergence, kochia; conditions: 0 to 100 scale
How it was run: as §1

[3] = system: ragweed (common ragweed, Ambrosia elatior); assay: Test A preemergence, ragweed; conditions: 0 to 100 scale
How it was run: as §1

[4] = system: ryegrass, Italian (Lolium multiflorum); assay: Test A preemergence, Italian ryegrass; conditions: 0 to 100 scale
How it was run: as §1

[5] = system: foxtail, giant (Setaria faberii); assay: Test A preemergence, giant foxtail; conditions: 0 to 100 scale
How it was run: as §1

[6] = system: pigweed (Amaranthus retroflexus); assay: Test A preemergence, pigweed; conditions: 0 to 100 scale
How it was run: as §1

[7] = system: barnyardgrass (Echinochloa crus-galli); assay: Test A postemergence, barnyardgrass; conditions: Echinochloa crus-galli, post-emergence, 240 h, 0 to 100 scale, read-out: Plant response rating, Barnyardgrass
How it was run: as §1

[8] = system: kochia (Kochia scoparia); assay: Test A postemergence, kochia; conditions: Bassia scoparia, post-emergence, 240 h, 0 to 100 scale, read-out: Plant response rating, Kochia
How it was run: as §1

[9] = system: ragweed (common ragweed, Ambrosia elatior); assay: Test A postemergence, ragweed; conditions: Ambrosia artemisiifolia, post-emergence, 240 h, 0 to 100 scale, read-out: Plant response rating, Ragweed
How it was run: as §1

[10] = system: ryegrass, Italian (Lolium multiflorum); assay: Test A postemergence, Italian ryegrass; conditions: Lolium multiflorum, post-emergence, 240 h, 0 to 100 scale, read-out: Plant response rating, Ryegrass, Italian
How it was run: as §1

[11] = system: foxtail, giant (Setaria faberii); assay: Test A postemergence, giant foxtail; conditions: Setaria faberi, post-emergence, 240 h, 0 to 100 scale, read-out: Plant response rating, Foxtail, Giant
How it was run: as §1

[12] = system: pigweed (Amaranthus retroflexus); assay: Test A postemergence, pigweed; conditions: Amaranthus retroflexus, post-emergence, 240 h, 0 to 100 scale, read-out: Plant response rating, Pigweed
How it was run: as §1

[13] = system: wheat (Triticum aestivum); assay: Test A postemergence, wheat; conditions: Triticum aestivum, post-emergence, 240 h, 0 to 100 scale, read-out: Plant response rating, Wheat
How it was run: as §1

[14] = system: corn (Zea mays); assay: Test A postemergence, corn; conditions: Zea mays, post-emergence, 240 h, 0 to 100 scale
How it was run: as §1

[15] = system: blackgrass (Alopecurus myosuroides); assay: Test A postemergence, blackgrass; conditions: Alopecurus myosuroides, post-emergence, 240 h, 0 to 100 scale, read-out: Plant response rating, Blackgrass
How it was run: as §1

[16] = system: galium (catchweed bedstraw, Galium aparine); assay: Test A postemergence, galium; conditions: Galium, post-emergence, 240 h, 0 to 100 scale, read-out: Plant response rating, Galium
How it was run: as §1

[17] = system: rice (Oryza sativa); assay: Test B flooded paddy test, rice; conditions: Oryza sativa, 360 h; Flood, 250 g ai/ha, applied to paddy water, 2-leaf stage, visual evaluation after 13 to 15 d; read-out: Plant response rating, Rice (0 to 100 scale, 0 is no effect, 100 is complete control)
How it was run: (§2)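 Visual injury scores run from 0 (no effect) to 100 (complete control), assigned by comparison with controls 13 to 15 d after treatment. Treatment went into floodwater standing 3 cm over the soil of pots holding 2-leaf plants.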

[18] = system: sedge, umbrella (small-flower umbrella sedge, Cyperus difformis); assay: Test B flooded paddy test, umbrella sedge; conditions: Cyperus difformis, 360 h; Flood, 250 g ai/ha, applied to paddy water, 2-leaf stage, visual evaluation after 13 to 15 d; read-out: Plant response rating, Sedge, Umbrella (0 to 100 scale, 0 is no effect, 100 is complete control)
How it was run: as §2

[19] = system: ducksalad (Heteranthera limosa); assay: Test B flooded paddy test, ducksalad; conditions: Heteranthera limosa, 360 h; Flood, 250 g ai/ha, applied to paddy water, 2-leaf stage, visual evaluation after 13 to 15 d; read-out: Plant response rating, Ducksalad (0 to 100 scale, 0 is no effect, 100 is complete control)
How it was run: as §2

[20] = system: barnyardgrass (Echinochloa crus-galli); assay: Test B flooded paddy test, barnyardgrass; conditions: Echinochloa crus-galli, 360 h; Flood, 250 g ai/ha, applied to paddy water, 2-leaf stage, visual evaluation after 13 to 15 d; read-out: Plant response rating, Barnyardgrass (0 to 100 scale, 0 is no effect, 100 is complete control)
How it was run: as §2

Question: `C[C@@H](Nc1ncc(C(F)(F)F)c(N)n1)c1cc2ccc(F)cc2o1` [Compound 8, N2-[(1R)-1-(6-fluoro-2-benzofuranyl)ethyl]-5-(trifluoromethyl)-2,4-pyrimidinediamine] was tested. Which “Plant response rating, Barnyardgrass” value ([1]; 125 g ai/ha) did it give?
Answer: 0

Question: What about the “Plant response rating, Barnyardgrass” value ([1]; 500 g ai/ha) of the same compound?
Answer: 90

Question: And the “Plant response rating, Kochia” value ([2]; 125 g ai/ha)?
Answer: 60

Question: And the “Plant response rating, Kochia” value ([2]; 500 g ai/ha)?
Answer: 90

Question: What about the “Plant response rating, Ragweed” value ([3]; 125 g ai/ha) of the same compound?
Answer: 90

Question: And the “Plant response rating, Ragweed” value ([3]; 500 g ai/ha)?
Answer: 100

Question: What about the “Plant response rating, Ryegrass, Italian” value ([4]; 125 g ai/ha) of the same compound?
Answer: 0

Question: What about the “Plant response rating, Ryegrass, Italian” value ([4]; 500 g ai/ha) of the same compound?
Answer: 0

Question: And the “Plant response rating, Foxtail, Giant” value ([5]; 125 g ai/ha)?
Answer: 50

Question: What about the “Plant response rating, Foxtail, Giant” value ([5]; 500 g ai/ha) of the same compound?
Answer: 100

Question: What about the “Plant response rating, Pigweed” value ([6]; 125 g ai/ha) of the same compound?
Answer: 80

Question: What about the “Plant response rating, Pigweed” value ([6]; 500 g ai/ha) of the same compound?
Answer: 100

Question: What about the pest or weed control at 125 g/ha ([7]; 125 g ai/ha) of the same compound?
Answer: 50%

Question: And the pest or weed control at 500 g/ha ([7]; 500 g ai/ha)?
Answer: 90%

Question: And the pest or weed control at 125 g/ha ([8]; 125 g ai/ha)?
Answer: 80%

Question: What about the pest or weed control at 500 g/ha ([8]; 500 g ai/ha) of the same compound?
Answer: 90%

Question: What about the pest or weed control at 125 g/ha ([9]; 125 g ai/ha) of the same compound?
Answer: 90%

Question: And the pest or weed control at 500 g/ha ([9]; 500 g ai/ha)?
Answer: 90%

Question: What about the pest or weed control at 125 g/ha ([10]; 125 g ai/ha) of the same compound?
Answer: 0%

Question: And the pest or weed control at 500 g/ha ([10]; 500 g ai/ha)?
Answer: 0%

Question: What about the pest or weed control at 125 g/ha ([11]; 125 g ai/ha) of the same compound?
Answer: 40%

Question: And the pest or weed control at 500 g/ha ([11]; 500 g ai/ha)?
Answer: 90%

Question: And the pest or weed control at 125 g/ha ([12]; 125 g ai/ha)?
Answer: 100%

Question: And the pest or weed control at 500 g/ha ([12]; 500 g ai/ha)?
Answer: 100%

Question: And the plant injury at 125 g/ha ([13]; 125 g ai/ha)?
Answer: 0%

Question: And the plant injury at 500 g/ha ([13]; 500 g ai/ha)?
Answer: 0%

Question: What about the Corn plant response rating (crop injury, 0 = no effect, 100 = complete kill) at 125 g/ha ([14]; 125 g ai/ha) of the same compound?
Answer: 0%

Question: What about the Corn plant response rating (crop injury, 0 = no effect, 100 = complete kill) at 500 g/ha ([14]; 500 g ai/ha) of the same compound?
Answer: 20%

Question: What about the pest or weed control at 125 g/ha ([15]; 125 g ai/ha) of the same compound?
Answer: 20%

Question: What about the pest or weed control at 500 g/ha ([15]; 500 g ai/ha) of the same compound?
Answer: 60%

Question: And the pest or weed control at 125 g/ha ([16]; 125 g ai/ha)?
Answer: 70%

Question: What about the pest or weed control at 500 g/ha ([16]; 500 g ai/ha) of the same compound?
Answer: 90%

Question: What about the plant injury at 250 g/ha [17] of the same compound?
Answer: 40%

Question: And the pest or weed control at 250 g/ha [18]?
Answer: 100%

Question: What about the pest or weed control at 250 g/ha [19] of the same compound?
Answer: 98%

Question: What about the pest or weed control at 250 g/ha [20] of the same compound?
Answer: 0%
